Measured values as given in PubChem BioAssay (NCI).
Several values for one entry are separate records, joined by “and”; a condition that tells them apart may be missing. Equal values may be shown once.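 In this assay, cells in 96-well plates receive the compound at five concentrations for 48 hours. Endpoints are linearly interpolated between the surrounding concentrations. GI50 = concentration required for 50% inhibition of growth. TGI: total growth inhibition.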

Columns and labels:
Assay in all cases: NCI-60 cell line screen, 48 h
[1] = tested on: MOLT-4 leukemia
[2] = tested on: MCF7 breast
[3] = tested on: SK-MEL-2 melanoma
[4] = tested on: SK-MEL-5 melanoma
[5] = tested on: BT-549 breast
[6] = tested on: NCI-H460 lung
[7] = tested on: NCI-H23 lung
[8] = tested on: DU-145 prostate
[9] = tested on: NCI/ADR-RES ovarian
[10] = tested on: ACHN renal

Compound | TGI [1] [µM] | TGI [2] | TGI [3] [µM] | TGI [4] [µM] | TGI [5] [µM] | TGI [6] | TGI [7] [µM] | TGI [8] [µM] | TGI [9] | TGI [10] | GI50 [2] [nM] | GI50 [8] [µM] | GI50 [9] [µM] | GI50 [10] [µM]
CC(=O)OC1C(C)OC(OC2C[C@](O)(C(C)=O)Cc3c(O)c4c(c(O)c32)C(=O)c2ccccc2C4=O)C(F)C1OC(C)=O (stereo partly drawn) | 0.112 | > 20.2 µM | 11.3 | 2.18 | 33.2 | 1.53 µM | 1.81 | 4.59 | 9.46 µM | 0.704 µM | – | – | – | –
Cc1c(N(Cc2ccccc2)Cc2ccccc2)nc(S(C)(=O)=O)nc1S(C)(=O)=O | 4.76 | – | 30.6 | 25.3 | – | 22.1 µM | 3.35 | – | – | 16.4 µM | – | – | – | –
N=c1sc(N2CCOCC2)nn1CC(=O)c1ccccc1 | > 100 | > 100 µM | > 100 | > 100 | > 100 | > 100 µM | > 100 | > 100 | > 100 µM | > 100 µM | – | – | – | –
O=C1c2sccc2C(=O)c2c(CO)csc21 | > 52.9 | 18.9 µM | 8.63 | 2.2 | 12 | 6.96 µM | 5.95 | 9.37 | 19.1 µM | 12.2 µM | – | – | – | –
CC(=O)Oc1c(OC(C)C)cc(=O)n2ccsc12 | > 100 | > 100 µM | > 100 | > 100 | > 100 | > 100 µM | > 100 | > 100 | > 100 µM | > 100 µM | – | – | – | –
O=C(Cn1c(-c2ccccc2)cc2ccccc21)N1CCOCC1 | > 100 | > 100 µM | > 100 | > 100 | – | > 100 µM | > 100 | > 100 | > 100 µM | > 100 µM | – | – | – | –
O=C(C[N+]1(c2ccccc2)CCOCC1)c1ccccc1 | > 100 | – | > 100 | > 100 | > 100 | > 100 µM | > 100 | > 100 | > 100 µM | > 100 µM | – | – | – | –
COc1cc(CC2C(=O)OCC2Cc2ccc(OC)c(OC)c2)ccc1O (stereo not drawn) | > 31.7 | > 100 µM | > 100 | > 100 | > 100 | > 100 µM | > 100 | > 100 | > 100 µM | > 100 µM | – | – | – | –
CCCCCCCCCCCC1=C(O)C(=O)C=C(O)C1=O | 44.1 | 42.2 µM | 12.5 | 10.4 | – | 9.98 µM | 29.7 | – | 16.4 µM | – | – | – | – | –
N/N=C(\N)SCc1ccc(N=C=S)cc1 | > 100 | – | > 100 | > 100 | – | > 100 µM | > 100 | > 100 | > 100 µM | > 100 µM | – | – | – | –
NS(=O)(=O)C1CCCCC1C(=O)NNC(=O)C(=O)Nc1nc(=S)[nH][nH]1 (stereo not drawn) | > 100 | – | > 100 | > 100 | – | > 100 µM | > 100 | – | – | > 100 µM | – | – | – | –
O=[N+]([O-])c1cccc2c1[nH]c1c(-c3ccccc3)nccc12 | 4.4 | > 24.8 µM | 3 | 3.46 | – | > 100 µM | 8.48 | – | 4.44 µM | – | – | – | – | –
Nc1nc(Nc2cc(F)c(Cl)c(F)c2)cc(=O)[nH]1 | > 100 | > 100 µM | > 100 | > 100 | > 100 | > 100 µM | > 100 | > 100 | > 100 µM | > 100 µM | – | – | – | –
COc1ccc(Sc2ccccc2[N+](=O)[O-])cc1 | > 100 | – | > 100 | > 100 | – | > 100 µM | > 100 | – | – | – | – | – | – | –
CCCCN1/C(=N/Nc2n[nH]c(=O)c3ccccc23)SCC1c1ccc(Cl)cc1 (stereo not drawn) | – | 33.2 µM | 56.4 | 14.3 | – | 24.8 µM | 14.7 | > 100 | 47 µM | > 100 µM | – | – | – | –
CSC(=NCCCN=C(NS(=O)(=O)c1ccc(Cl)cc1)SC)NS(=O)(=O)c1ccc(Cl)cc1 | 33.2 | 52.8 µM | 43.6 | – | – | > 100 µM | – | > 100 | > 100 µM | > 100 µM | – | – | – | –
CC1SCCc2nc3ccccc3n21 (stereo not drawn) | > 100 | > 100 µM | > 100 | > 100 | > 100 | > 100 µM | > 100 | > 100 | > 100 µM | – | – | – | – | –
COC1=C(C)C(=O)C2=C(C1=O)C1C3CC4=C(C(=O)C(OC)=C(C)C4=O)C(CNC(=O)C(C)=O)N3C(C#N)C(C2)N1C (stereo not drawn) | – | 0.359 µM and 0.379 µM | – | – | 0.0017 | 0.0318 µM and 0.211 µM and 0.151 µM | – | 0.0862 | 4.05 µM and 2.76 µM | 1.16 µM and 1.23 µM | 0.0742 | 0.0033 | 1.16 | 0.00366
Nc1nc(N)c2ncn(Cc3ccccc3)c2n1 | > 100 | > 100 µM | > 100 | > 100 | > 100 | – | > 100 | > 100 | > 100 µM | > 100 µM | – | – | – | –
C[C@@H](c1ccccc1)N(CC#N)[C@H]1CCC[C@]1(O)/C=C/c1ccc2c(c1)OCO2 | > 25 | 11.5 µM | > 25 | > 25 | – | > 25 µM | > 25 | > 25 | > 25 µM | 8.04 µM | – | – | – | –
O=C(NCc1ccc(Cl)c(Cl)c1)c1nc2ccccc2nc1NCc1ccc(Cl)c(Cl)c1 | – | > 100 µM | > 100 | > 100 | > 100 | > 100 µM | > 100 | > 100 | > 100 µM | > 100 µM | – | – | – | –
O=C(Nc1nc2ccc([N+](=O)[O-])cc2s1)c1cc([N+](=O)[O-])ccc1Cl | > 100 | – | – | 2.83 | 6.83 | – | 6.92 | 31 | 8.23 µM | 13.7 µM | – | – | – | –
CCOC(=O)N/N=C(/N)Cc1ccc(Cl)cc1 | > 100 | > 100 µM | > 100 | > 100 | > 100 | – | > 100 | > 100 | > 100 µM | > 100 µM | – | – | – | –
CCOC(=O)c1c(SCCN(CC)CC)n(-c2ccccc2)c(=S)n(-c2ccccc2)c1=O | 3.33 | – | 30.1 | 7.6 | 18.6 | 15.6 µM | 44.6 | 3.06 | > 100 µM | 3.2 µM | – | – | – | –
